Data set [1] deals with T1, EGFR (Homo sapiens, UniProt P00533). In words: EGFP-SH2 biosensor system measuring EGFR activation (internalization) in A549 cells. The conditions noted are these: 100 μM, compared to DMSO control. Type of data set: cell-based.
Experimental: Using these characteristics, a biosensor system was manufactured such that EGFR internalization by the EGFR activation could be measured by a fluorescent protein. Specifically, an EGFP-SH2 vector was manufactured by removing only the SH2 domain of Grb2 and inserted it in an enhanced green fluorescent protein (EGFP) vector using recombinant DNA technology, and then introduced it into A549 cells for expression.
After being cultured in a serum-free medium for 24 hours, the cells were treated with piperonylic acid.
For data set [2], the system named is HaCaT cells. In words: Cytotoxicity by MTT in HaCaT keratinocytes. Type of data set: cell-based. The protocol:
The cytotoxicity of piperonylic acid was measured using HaCaT cells which are keratinocytes. When cells are treated with a yellow water-soluble substrate MTT tetrazolium, the substrate is reduced to MTT formazan by mitochondrial enzymes and the color changes to blue-violet. Since the more living cells there are, the darker the blue-violet color appears, the blue-violet absorbance at 540 nm reflects the concentration of living cells. Specifically, after cells were cultured fully in each well of a 96-well plate, cells were treated with piperonylic acid at a concentration of 0, 25, 50, 100, 250, and 500 μM and cultured at 37° C. in a 5% CO2 incubator for 24 hours and 48 hours, and then the viability of cells was measured by an MTT reagent. A control (0 μM) that had not been treated with piperonylic acid was treated with an equal amount of solvent, DMSO.

The subject of the next data set is ERK. Briefly: ERK activation (phosphorylation) in HaCaT cells, Western blotting. Type of data set: cell-based. On the procedure:
(§1) It is well known that the activation of extracellular signal-regulated kinase (ERK) and protein kinase B (AKT) are induced by the EGFR activation and transmit signals required for cell growth and survival. Accordingly, as the activation of EGFR by piperonylic acid was verified in Examples 2 and 3, it was determined whether ERK and AKT, the downstream of EGFR, were also activated by piperonylic acid. Specifically, after HaCaT cells were cultured in a serum-free medium, the cells were treated with piperonylic acid at 0, 25, and 100 μM, and then ERK and AKT, which were activated when phsphorylated, were analyzed by Western blotting method. As antibodies, phosphor-site specific antibodies which are labeling factors of activated ERK and AKT and antibodies that measure total ERK and AKT were used, and GAPDH expressed from a housekeeping gene was measured in order to correct the amount of total proteins between lanes.
(§2) Subsequently, in order to confirm the pattern of ERK and AKT activities by piperonylic acid treatment over time, HaCaT cells cultured in a serum-free medium were treated with piperonylic acid, and then the activity pattern over time was analyzed.
(§3) In order to verify that the activation of ERK and AKT by piperonylic acid were induced by EGFR, the activity of EGFR was suppressed by treating cells with tyrphostin AG1478 which is an EGFR antagonist, and then the activities of ERK and AKT by piperonylic acid were analyzed.

For a further data set, the system named is AKT. In words: AKT activation (phosphorylation) in HaCaT cells, Western blotting. Type of data set: cell-based. On the procedure: as §1, §2, §3
(A western blot detects proteins with antibodies after separation by electrophoresis.)

Data set [3] concerns c-myc, c-jun, c-fos, and egr-1 genes. In words: Change in gene expression in HaCaT cells (real-time quantitative PCR, Western blotting). Type of data set: cell-based. The text has this:
Signaling by EGFR induces gene expression that is important for cell growth and survival via important signaling mediator proteins which are ERK and AKT. It is well known that c-myc, c-jun, c-fos, and egr-1 genes are genes which are regulated by EGFR and promote cell growth and survival. […] Specifically, a Tri-reagent was used for mRNA extraction, cDNA was made by a reverse transcription polymerase chain reaction (RT-PCR) using a poly-A primer and a reverse transcriptase, and the amount of each mRNA was measured using real-time quantitative PCR. The amount of each mRNA was corrected with the amount of β-actin which is a housekeeping gene.

The test system of data set [4] is HaCaT cells. Briefly: Growth promotion of keratinocytes by CCK-8 assay. The conditions noted are these: 50 μM and 100 μM, 24 hours, serum-free, compared to the negative control. Type of data set: cell-based. The protocol:
Cell counting kit-8 (CCK-8) is a water-soluble tetrazolium salt reagent called WST-8, and forms orange water-soluble formazan by a dehydrogenase in the mitochondria of living cells. The absorbance of the orange wavelength at 450 nm as indicated by CCK-8 reflects the number of cells, and thus has been used to measure cell growth and proliferation. The growth promotion efficacy of keratinocytes, HaCaT cells, was measured by CCK-8 assay using non-cytotoxic piperonylic acid at a concentration of 50 μM and 100 μM. Specifically, after 1×10^4 HaCaT cells were cultured on a 96-well plate for 24 hours, growth factors in the medium were removed by exchanging the medium with a serum-free medium, and then the cells were treated with piperonylic acid. […] After the cells were cultured for 24 hours, the cell growth was analyzed by treating the cells with CCK8 and measuring the absorbance at 450 nm.
(Tetrazolium dyes change colour on reduction, which living cells bring about.)

For data set [5], the system named is HaCaT cells. Briefly: Wound healing assay in keratinocytes. To be noted: 50 μM and 100 μM, culturing for 3 days, vs negative control. Type of data set: cell-based. On the procedure:
Further, the cell growth promotion efficacy by piperonylic acid was confirmed through a wound healing assay. Specifically, after HaCaT cells were cultured fully on a 12-well plate, a wound area was formed using a yellow tip, and the cells were treated with piperonylic acid at 50 μM and 100 μM after exchanging the medium with a serum-free medium.

For data set [6], the system named is HaCaT cells. Briefly: Resistance to UVB-induced cell damage, cell viability by CCK-8. Type of data set: cell-based. To be noted: UVB at 25 mJ/cm^2, 100 μM; negative control 84%. On the procedure: Among the ultraviolet wavelengths, the UVB wavelength corresponding to 280 to 315 nm penetrates the epidermal layer where many keratinocytes are present to cause cell damage. […] The solvent DMSO was used as a negative control, and cell viability was measured using the CCK-8 method used in Example 7.

For data set [7], the system named is dermal papilla cells related to androgenic alopecia. In words: Proliferation of dermal papilla cells related to androgenic alopecia by MTT. Type of data set: cell-based, human. To be noted: 50 μM, 24 hours, serum-free, vs DMSO. From the text:
The dermal papilla cells related to androgenic alopecia used in the experiment were a cell line that was immortalized by inserting hTERT and SV40-Tag into dermal papilla cells (DPCs, passage 1) derived from male androgenic alopecia patients, and purchased from Epibiotech Co., Ltd. and used. The proliferation of dermal papilla cells was confirmed using MTT tetrazolium. MTT tetrazolium is reduced to MTT formazan by intracellular mitochondrial enzymes, and at this time, the yellow color turns blue violet. The more cells there are, the stronger the reduction, so a stronger blue violet color appears, and the concentration of living cells is measured by measuring the absorbance of the blue violet color at 540 nm. Specifically, 1×10^4 cells are aliquoted into 96-well cell culture plates and cultured for 24 hours. Thereafter, a serum-free medium was treated with 50 μM piperonylic acid, and then cultured for 24 hours. Then, after the cells were treated with the MTT reagent for 2 hours, cell growth was analyzed by adding DMSO thereto and confirming the color development at […]. A solvent DMSO was used as a negative control.

The test system of the next data set is cyclin D. Briefly: Cyclin D protein level in dermal papilla cells, western blotting. Type of data set: cell-based, human. The conditions noted are these: 25 and 50 μM, 24 hours, compared to the control. On the procedure:
In addition, in order to investigate a gene expression pattern involved in the proliferation of dermal papilla cells related to androgenic alopecia, the human dermal papilla cells were cultured in a serum-free medium for 24 hours, and then treated with 25 and 50 μM piperonylic acid, respectively. The cells were treated with a drug, and after 24 hours, the levels of cyclin D were analyzed by the western blotting method. As an antibody, GAPDH, which is always expressed constantly, was used to correct the total protein amount between the cyclin D antibody and each lane. A solvent DMSO was used as a negative control.

In data set [8] the test system is dermal papilla cells related to androgenic alopecia. In words: Scratch (yellow tip) proliferation assay in dermal papilla cells related to androgenic alopecia. To be noted: 100 μM, 24 hours and 48 hours, serum-free, vs DMSO. Type of data set: cell-based, human. From the text:
Meanwhile, in order to investigate the proliferation pattern of dermal papilla cells related to androgenic alopecia during treatment with piperonylic acid, a 12-well cell culture plate was fully filled with the dermal papilla cells, and the cells were injured using a yellow tip. […] A solvent DMSO was used as a negative control.

Data set [9] has as its target T1, EGFR. Briefly: Pull-down of EGFR from HaCaT cell lysate with piperonylic acid-conjugated Sepharose 4B bead, Western blotting. Type of data set: binding. Also on record: endogenous in cells; host or cells: HaCaT cells. To be noted: 100 μM of free piperonylic acid added with the cell lysate. The protocol: In order to investigate the mechanism of EGFR activation by piperonylic acid confirmed in Example 2, it was confirmed in the present example whether piperonylic acid could interact with EGFR. For this purpose, piperonylic acid-4B bead was manufactured by conjugating piperonylic acid to a Cyanogen bromide-activated-Sepharose 4B bead purchased from Sigma-Aldrich. Equal amounts of HaCaT cell lysates were incubated with piperonylic acid-4B bead and control-4B used as the control, and proteins bound to the bead were analyzed by the Western blotting method. An anti-EGFR antibody was used in order to measure EGFR among the precipitated proteins, and anti-Actin and anti-GAPDH antibodies against actin and GAPDH proteins present in large amounts as housekeeping genes were used in order to support that the binding to piperonylic acid was selective.

Data set [10] addresses T1, EGFR. Briefly: Tyrosine phosphorylation of EGFR in HaCaT cells (immunoprecipitation, Western blotting). Type of data set: cell-based. On the set-up: endogenous in cells; host or cells: HaCaT cells. The conditions noted are these: 100 μM for 10 minutes, compared to DMSO. The protocol: In order to confirm whether the binding of piperonylic acid with EGFR directly induces the EGFR activation, HaCaT cells cultured in a serum-free medium were treated with piperonylic acid at a concentration of 100 μM for 10 minutes, and then the activation was measured through an increasing tyrosine phosphorylation of EGFR. Specifically, after only EGFR was precipitated from 500 μg of cell lysate by immunoprecipitation using anti-EGFR antibody and protein-G agarose beads, the level of tyrosine phosphorylation was analyzed by Western blotting method.

The mark [11] stands for this setting: 100 μM, 10 minutes, compared to the control.
Setting [12] is: piperonylic acid treatment, serum-free medium.
[13] abbreviates: AG1478 at 200 nM for 10 minutes, then piperonylic acid.

Structures are written as SMILES.

T1 sequence (P00533 25-1210): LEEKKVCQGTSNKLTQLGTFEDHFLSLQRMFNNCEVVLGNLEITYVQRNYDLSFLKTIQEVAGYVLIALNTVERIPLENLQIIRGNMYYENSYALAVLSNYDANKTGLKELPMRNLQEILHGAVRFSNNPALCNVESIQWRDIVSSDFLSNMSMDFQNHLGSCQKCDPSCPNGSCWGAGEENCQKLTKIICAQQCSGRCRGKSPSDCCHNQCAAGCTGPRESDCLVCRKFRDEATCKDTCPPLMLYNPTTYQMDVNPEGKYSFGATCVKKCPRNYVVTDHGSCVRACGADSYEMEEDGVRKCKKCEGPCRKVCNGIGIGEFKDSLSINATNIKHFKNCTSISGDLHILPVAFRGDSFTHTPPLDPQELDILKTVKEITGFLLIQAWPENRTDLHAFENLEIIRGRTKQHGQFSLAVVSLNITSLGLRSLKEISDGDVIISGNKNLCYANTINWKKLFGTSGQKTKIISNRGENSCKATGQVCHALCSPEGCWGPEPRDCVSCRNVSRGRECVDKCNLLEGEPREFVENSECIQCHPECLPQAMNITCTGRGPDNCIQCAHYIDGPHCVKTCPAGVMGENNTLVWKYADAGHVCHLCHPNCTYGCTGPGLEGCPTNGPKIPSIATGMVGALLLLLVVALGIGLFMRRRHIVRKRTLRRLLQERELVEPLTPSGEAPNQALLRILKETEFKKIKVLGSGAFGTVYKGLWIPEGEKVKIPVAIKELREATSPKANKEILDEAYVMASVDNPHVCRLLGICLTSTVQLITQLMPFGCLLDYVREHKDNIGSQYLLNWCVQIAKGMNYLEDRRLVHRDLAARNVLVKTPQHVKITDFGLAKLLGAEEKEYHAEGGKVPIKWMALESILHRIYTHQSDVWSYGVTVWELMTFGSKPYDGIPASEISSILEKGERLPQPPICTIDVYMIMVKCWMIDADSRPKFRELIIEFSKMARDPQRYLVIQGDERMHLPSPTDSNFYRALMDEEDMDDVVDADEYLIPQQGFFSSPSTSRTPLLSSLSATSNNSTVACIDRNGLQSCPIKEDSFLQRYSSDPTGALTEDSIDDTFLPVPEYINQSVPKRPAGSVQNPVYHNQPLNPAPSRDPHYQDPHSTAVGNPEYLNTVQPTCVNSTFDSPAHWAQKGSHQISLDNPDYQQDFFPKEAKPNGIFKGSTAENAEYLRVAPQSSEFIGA

As for `O=C(O)c1ccc2c(c1)OCO2` [piperonylic acid], the “EGFR activation in biosensor system (change in fluorescence signal)” value on EGFR [1] is reported as “EGFR was activated”. Besides, the cytotoxicity to keratinocytes entry in the data set on HaCaT cells [2] (0-500 μM, 24 and 48 hours) was “very low”. Also, in the data set with HaCaT cells [2] (500 μM for 48 hours), the “difference in cell viability from control” value is recorded as “about 10%”. Further, the ERK activation in the data set with ERK (setting [11]) amounted to 3.3 fold. Besides, the “pattern of ERK activity over time” value in the data set on ERK (setting [12]) was “rapidly induced for 5 to 10 minutes”. This compound gave an AKT activation in the data set with AKT (setting [11]) of 2.1 fold. In the data set with AKT (setting [12]), the “pattern of AKT activity over time” value is recorded as “rapidly induced for 5 to 10 minutes”. The “expression of Egr-1 and c-Fos proteins” value in data set [3] (100 μM) is reported as “increase in expression”. The “mRNA expression of c-jun” value in data set [3] (100 μM, 0, 1, 2, and 6 hours) is recorded as “increasing tendency”. For the same compound, the “cell growth and proliferation (CCK-8)” value in the data set with HaCaT cells [4] is recorded as “significantly increased”. For the same compound, in the data set with HaCaT cells [5], the “filling of wound area” value is “more rapidly filled”. The “cells survived after UVB” value with HaCaT cells [6] is recorded as 89%. For the same compound, in [7], the “cell proliferation of dermal papilla cells (MTT)” value was “promoted cell proliferation”. Moreover, the “expression of cyclin D protein” value with cyclin D is “significantly increased”. Further, the “cell proliferation of dermal papilla cells (scratch)” value in data set [8] is given as “promoted cell proliferation”. Also, the “amount of EGFR bound to bead under competition” value on EGFR [9] was “the amount of EGFR bound thereto was reduced”. In addition, the “tyrosine phosphorylation of EGFR” value at EGFR [10] stood at 1.8 fold.

As for `COc1cc2ncnc(Nc3cccc(Cl)c3)c2cc1OC` [AG1478, tyrphostin AG1478, reference compound], the “ERK activation by piperonylic acid after EGFR antagonist” value in the data set with ERK (setting [13]) was “not activated”. In the data set on AKT (setting [13]), the “AKT activation by piperonylic acid after EGFR antagonist” value is listed as “not activated”. In addition, the “gene expression of c-fos and egr-1 increased by piperonylic acid” value in [3] (AG1478 pre-treatment, piperonylic acid at 100 μM, 2 hours) was “completely suppressed”.

The record behind these values is US12357553B2, “Composition for treating hair loss or promoting hair growth, comprising piperonylic acid” (HESED BIO CO., LTD., priority 2017, dated 2025).
